Measured values from patent publication US11391740B2, “Methods and materials for identifying and treating cancer” (Mayo Foundation for Medical Education and Research, priority 2019, dated 2022).

Experiments:
C4-2ENZ-R cells = test: SRB cell proliferation assay in enzalutamide-resistant C4-2 cells; assay type: cell-based, human; conditions: for sensitivity of C4-2ENZ-R cells compared with C4-2CON cells by half maximal inhibitory concentration (IC50): C4-2ENZ-R vs C4-2CON, 4 days, FIGS. 5A-5C
Description: FIGS. 5A-5D: Dual inhibition of BET and CBP/p300 overcomes ENZ-resistance in ARPCa. A: Heatmap showing the sensitivity of control (C4-2CON) and enzalutamide-resistant C4-2 cells (C4-2ENZ-R) to various inhibitor. B-C: C4-2CON and C4-2ENZ-R cells were treated with the indicated concentrations of BET inhibitor (JQ1) and CBP/p300 inhibitor (CPI637) for 4 days, the cell proliferation was measured by SRB assay, and the 96 well plates were imaged. Data are represented as means±s.d., n=4. Statistical significance was determined by two-way ANOVA. D: C4-2ENZ-R cells were treated with the indicated concentrations of ENZ, JQ1, CPI637, or a combination of JQ1 and CPI-637, and cell proliferation was measured by a SRB assay. Data are represented as means±s.d., n=6. Statistical significance was determined by two-way ANOVA.
FIGS. 7A-7E. Full-length AR, but not AR variants, drives ENZ-resistant cell proliferation. A: C4-2CON and C4-2ENZ-R cells were treated with the indicated concentrations of ENZ, and cell proliferation was measured by SRB assay. Data are represented as means±s.d., n=6. Statistical significance was determined by two-way ANOVA. B: Heatmap showing RNA-seq read intensity of the canonical AR signature genes in C4-2CON and C4-2ENZ-R cells. C: RT-qPCR showing the mRNA level of KLK3 in C4-2CON and C4-2ENZ-R cells. Data are represented as means±s.d., n=3. Statistical significance was determined by unpaired two-tailed Student's t tests. D: Western blot analysis showing the expression of full-length (FL) AR and AR variants (Vs) in C4-2CON and C4-2ENZ-R cells. ERK2 was used as a loading control. E: UCSC genome browser tracks showing RNA-seq signals of AR and AR variants in C4-2CON and C4-2ENZ-R cells.
LNCaP, VCaP, LAPC4 PCa, and 293T cell lines were purchased from ATCC. […]
293T cells were co-transfected with control shRNA or shRNA specific for human AR, CXXC5, TET2, ID1, ID3 and PFN2. […] Cells were fixed at different time points (day 0-5) and cell growth was measured using a sulforhodamine B (SRB) assay (He et al., Nature Commun., 7:13122 (2016)).

ENZ-resistant PDXs = test: ENZ-resistant patient-derived xenograft (PDX) tumor growth in mice; assay type: in vivo; conditions: castrated male mice; ENZ 10 mg/kg, CPI637 10 mg/kg, JQ1 50 mg/kg, oral gavage 5 days per week
CRPC PDX = test: CRPC patient-derived xenograft (PDX) tumor growth in mice; assay type: in vivo; conditions: ENZ 10 mg/kg daily, 32 days
From the text: FIG. 11A-D. Upregulation of CXXC5 and ID1 in AFI-resistant PCa patients. A: H&E staining and IHC for AR, CXXC5, and ID1 in hormone naïve, CRPC and ENZ-resistant PC patient specimens. Scale bar, 200 μm. B: H&E staining and IHC for AR, CXXC5, and ID1 in ABI-resistant ARPC patient specimens. Scale bar, 200 m (low magnification); 50 m (high magnification). C-D: Comparison of ENZ response in CRPC and ENZ-resistant PDXs. CRPC and ENZ-resistant PDXs were planted into the right flank of 6 week-old male SCID mice. After the tumor volume reached about 100 mm^3, mice were randomly assigned within each tumor group and treated with 10 mg/kg of […] daily. Tumor size was measured every 4 days (C). After 32 days of treatment, tumors were isolated and photographed (D). Data are represented as means±s.d., n=8. Statistical significance was determined by two-way ANOVA.
NOD-SCID male mice were generated in house and used for animal experiments. All mice were housed under standard conditions with a 12 hour light/dark cycle and access to food and water ad libitum and maintained under pathogen-free conditions. […] Mice were treated 5 days per week by oral gavage and tumor growth was measured in a blinded fashion using digital calipers. The tumor volume was calculated using the following equation: tumor volume=length×width×width×0.5.

C4-2ENZ-R xenografts = test: C4-2ENZ-R xenograft tumor growth in SCID mice; assay type: in vivo; conditions: ENZ 10 mg/kg per day, 28 days, FIGS. 1A, 1B
Description: FIGS. 1A-1G. Genome-wide profiling of AR chromatin binding in ENZ-resistant PCa cells. A: Effect of ENZ treatment on growth of C4-2CON and C4-2ENZ-R xenografts in mice. C4-2ENZ-R and C4-2CON cells suspended in 0.1 mL matrigel were injected into the right flank of 6-week old male SCID mice. After the volume of tumor nodules reached about 100 mm^3, mice were randomly assigned within control and ENZ-resistant groups and were treated with ENZ at 10 mg/kg or vehicle per day and tumor volume was measured every 4 days. B: After 28 days of treatment, tumors were isolated from mice in each group and photographed. Data are represented as means±s.d., n=8. Statistical significance was determined by two-way ANOVA. […] D: AR was knocked down by specific shRNAs in C4-2CON and C4-2ENZ-R cells, and cell proliferation was measured by SRB assay. […] Statistical significance was determined by two-way ANOVA. E: Venn diagram showing AR chromatin binding peaks in C4-2CON and C4-2ENZ-R cells detected by ChIP-seq. F: Heatmaps showing ChIP-seq read intensity of AR, H3K27ac, and FOXA1 in C4-2CON and C4-2ENZ-R cells. […]
FIGS. 6A-6G. […] Representative images (scale bar, 50 μm), and quantified data are show in (a) and (b), respectively. […] Tumor size was measured every 4 days (d). After 28 days of treatment, tumors isolated from mice were photographed (e), and tumor weight was measured (f). […]

Structure (SMILES) | sensitivity of C4-2ENZ-R cells compared with C4-2CON cells by half maximal inhibitory concentration (IC50) (C4-2ENZ-R cells) | response of ENZ-resistant PDXs to treatment (ENZ-resistant PDXs) | growth of C4-2ENZ-R cells under ENZ treatment in vitro (C4-2ENZ-R cells; in vitro, FIG. 7A) | response of CRPC PDX to treatment (CRPC PDX) | growth of C4-2ENZ-R xenografts under ENZ treatment in vivo (C4-2ENZ-R xenografts)
C[C@@H]1CC(=O)Nc2cccc(-c3ccc4c(c3)c(-c3cnn(C)c3)nn4C)c2N1 [CPI637] | much more sensitive | responded | – | – | –
CNC(=O)c1ccc(N2C(=S)N(c3ccc(C#N)c(C(F)(F)F)c3)C(=O)C2(C)C)cc1F [ENZ, enzalutamide] | – | – | resistant to ENZ treatment | still responded | resistant to ENZ treatment
Cc1sc2c(c1C)C(c1ccc(Cl)cc1)=N[C@@H](CC(=O)OC(C)(C)C)c1nnc(C)n1-2 [JQ1] | much more sensitive | responded | – | – | –
